Assay results published in patent US20260363239A1, “COMPOSITIONS TO CONTROL LEVEL OF UNDESIRABLE MATERIALS” (Solugen, Inc., priority 2022, published 2026).
Converted amounts (≈) assume the structure as drawn.

Test system: general wild strain bacteria
Assay: Minimum inhibitory concentration (MIC) against general wild strain bacteria
Format: cell-based
Settings: not given
Procedure: (§1) A minimum inhibitory concentration (MIC) of a MUM was determined and compared to that of the biocide glutaraldehyde. Specifically, the indicated compound or blend of compounds was used to treat a wildtype E. coli strain and the effect of this treatment on bacterial count used to determine the MIC.
(§2) However, the mixture of the glyoxal and glycolaldehyde (1,4 dioxane 2,5 diol) provided competitive performance to glutaraldehyde.

Question: How did the MIC turn out when OC1COC(O)CO1 (stereo not drawn) [39% 1,4 dioxane 2,5 diol, 1,4 dioxane 2,5 diol] was run?
Answer: > 1000 µg/mL

Question: How did the MIC turn out when O=CC=O [39% glyoxal, glyoxal] was run?
Answer: > 1000 µg/mL

Question: With O=CCCCC=O [40% glutaraldehyde, glutaraldehyde] as the compound, how does the MIC read?
Answer: 1000 µg/mL (≈ 9.99 mM)

Test system: E. Coli
Assay: Minimum inhibitory concentration (MIC) against E. coli
Format: cell-based
Settings: Escherichia coli
Procedure: as §1, §2

Question: Which MIC does the source give for OC1COC(O)CO1 (stereo not drawn) [39% 1,4 dioxane 2,5 diol, 1,4 dioxane 2,5 diol] here?
Answer: 1000 µg/mL (≈ 8.33 mM)

Question: O=CC=O [39% glyoxal, glyoxal] was tested. Which MIC did it give?
Answer: 1000 µg/mL (≈ 17.2 mM)

Question: O=CCCCC=O [40% glutaraldehyde, glutaraldehyde] was tested. Which MIC did it give?
Answer: 1000 µg/mL (≈ 9.99 mM)
